This note sets out measurements from US10927106B2, “Benzothiazole derivatives as DYRK1 inhibitors” (PHARMASUM THERAPEUTICS AS, priority 2017, dated 2021).

One test concerns the target ERK8 (Homo sapiens (Human), UniProt Q8TD08). As to the kind of experiment: Kinase profiling, 33P ATP filter binding assay. In kind it is biochemical. Particulars: 1 micromolar inhibitor concentration, read-out: percentage inhibition.
Another test deals with CDK9-Cyclin T1 (Homo sapiens (Human), UniProt P50750). As to the kind of experiment: Kinase profiling, 33P ATP filter binding assay. In kind it is biochemical. Particulars: 1 micromolar inhibitor concentration, read-out: percentage inhibition.
For the next test, the target named is PIM2 (Homo sapiens (Human), UniProt Q9P1W9). Description: Kinase profiling, 33P ATP filter binding assay. In kind it is biochemical. Particulars: 1 micromolar inhibitor concentration, read-out: percentage inhibition.
The next test has as its target OSR1 (Homo sapiens (Human), UniProt O95747). Description: Kinase profiling, 33P ATP filter binding assay. The test is classed as biochemical. Particulars: 1 micromolar inhibitor concentration, read-out: percentage inhibition.
The target of the next test is Lck (Homo sapiens (Human), UniProt P06239). Description: Kinase profiling, 33P ATP filter binding assay. Particulars: 1 micromolar inhibitor concentration, read-out: percentage inhibition. In kind it is biochemical.
The test system of test [1] is tau/MAPT phosphorylation in TS21 neurons. As to the kind of experiment: Tau/MAPT phosphorylation in TS21 neuronal cultures, Western blotting. In kind it is cell-based, human. Particulars: TS21 neurons. Here is the method: (§1) Overexpression of DYRK1A in DS is thought to account for increased tau phosphorylation by GSK3β and the increase in DYRK1A positive neurofibrillary tangles (NFTs) in the brains of people with DS and AD. Therefore therapeutic inhibition of DYRK1A activity in DS and AD may delay the progression of neurodegeneration in DS and AD. The following experiment on reduction of tau phosphorylation by inhibition of DYRK1A by inhibitor 4-93 was performed as described in the literature (Shi, Y. et al. A human stem cell model of early Alzheimer's disease pathology in Down syndrome. Sci. Transl. Med. 4, 124ra29 (2012)).
(§2) Neuronal cultures at day 40 were treated with DYRK1A inhibitors and control compounds for 10 days. Total protein was extracted and total tau and phosphorylated tau/MAPT was quantified by Western blotting using antibodies to total tau and a number of phospho-tau epitopes.

Test [2] concerns tau/MAPT phosphorylation in control neurons. As to the kind of experiment: Tau/MAPT phosphorylation in control neurons, Western blotting. The test is classed as cell-based, human. Particulars: treated for 10 days, compared to DMSO treated controls. As to the method:
as §1, §2

The next test deals with GSK3b (Homo sapiens (Human), UniProt P49841). As to the kind of experiment: Kinase profiling, 33P ATP filter binding assay. In kind it is biochemical. Particulars: 1 micromolar inhibitor concentration, read-out: percentage inhibition.
The next test has as its target CLK2 (Homo sapiens (Human), UniProt P49760). Description: Kinase profiling, 33P ATP filter binding assay. The test is classed as biochemical. Particulars: 1 micromolar inhibitor concentration, read-out: percentage inhibition.
The subject of a further test is ROCK 2. Particulars: 1 micromolar inhibitor concentration.
A further test deals with PHK. Particulars: 1 micromolar inhibitor concentration.
For the next test, the system named is AMPK (hum). Particulars: 1 micromolar inhibitor concentration.
Another test concerns PINK. Particulars: 1 micromolar inhibitor concentration.
Where [3] appears, read: ten days treatment, vs DMSO treated controls or DAPT treated positive controls.
[4] abbreviates: treated for 10 days, normalised to β-actin, vs DMSO treated controls.

Sequence of CDK9-Cyclin T1 (P50750 whole entry): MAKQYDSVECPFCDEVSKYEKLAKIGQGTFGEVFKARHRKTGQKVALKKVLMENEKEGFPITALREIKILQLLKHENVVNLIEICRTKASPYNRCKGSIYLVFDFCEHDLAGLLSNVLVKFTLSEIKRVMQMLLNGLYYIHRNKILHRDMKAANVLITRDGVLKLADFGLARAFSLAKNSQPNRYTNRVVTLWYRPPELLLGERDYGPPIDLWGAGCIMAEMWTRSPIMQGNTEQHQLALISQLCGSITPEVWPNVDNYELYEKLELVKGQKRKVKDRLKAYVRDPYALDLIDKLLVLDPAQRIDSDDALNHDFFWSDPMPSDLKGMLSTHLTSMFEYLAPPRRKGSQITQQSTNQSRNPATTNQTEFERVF
Sequence of CDK9-Cyclin T1 (O60563 whole entry partner): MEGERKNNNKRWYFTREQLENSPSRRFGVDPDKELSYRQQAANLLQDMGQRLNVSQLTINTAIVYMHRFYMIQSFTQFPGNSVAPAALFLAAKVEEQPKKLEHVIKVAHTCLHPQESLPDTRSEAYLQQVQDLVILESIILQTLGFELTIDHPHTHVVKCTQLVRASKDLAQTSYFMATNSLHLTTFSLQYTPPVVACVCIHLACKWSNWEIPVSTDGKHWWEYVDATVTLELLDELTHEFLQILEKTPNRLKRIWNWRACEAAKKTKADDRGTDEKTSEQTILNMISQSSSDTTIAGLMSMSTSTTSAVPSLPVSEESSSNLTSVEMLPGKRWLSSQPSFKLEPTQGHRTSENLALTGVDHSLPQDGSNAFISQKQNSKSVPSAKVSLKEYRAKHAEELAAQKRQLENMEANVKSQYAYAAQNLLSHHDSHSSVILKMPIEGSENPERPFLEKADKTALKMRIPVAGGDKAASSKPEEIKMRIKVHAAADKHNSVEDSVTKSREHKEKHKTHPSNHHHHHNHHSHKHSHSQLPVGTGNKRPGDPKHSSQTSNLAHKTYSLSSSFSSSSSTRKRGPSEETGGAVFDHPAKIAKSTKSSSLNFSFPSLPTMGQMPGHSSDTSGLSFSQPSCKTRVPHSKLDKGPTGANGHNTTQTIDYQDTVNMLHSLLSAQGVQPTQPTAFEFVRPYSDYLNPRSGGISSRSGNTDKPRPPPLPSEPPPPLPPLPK
Sequence of PIM2 (Q9P1W9 whole entry, species assumed): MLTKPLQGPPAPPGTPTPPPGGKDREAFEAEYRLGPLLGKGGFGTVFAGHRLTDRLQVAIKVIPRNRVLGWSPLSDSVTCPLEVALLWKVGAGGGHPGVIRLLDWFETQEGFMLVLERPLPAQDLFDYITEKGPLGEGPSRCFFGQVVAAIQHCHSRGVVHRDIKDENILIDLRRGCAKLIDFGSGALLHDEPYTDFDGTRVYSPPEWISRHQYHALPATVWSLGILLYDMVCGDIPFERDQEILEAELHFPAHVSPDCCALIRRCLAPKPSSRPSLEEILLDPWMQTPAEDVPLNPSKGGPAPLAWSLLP
Sequence of OSR1 (O95747 whole entry): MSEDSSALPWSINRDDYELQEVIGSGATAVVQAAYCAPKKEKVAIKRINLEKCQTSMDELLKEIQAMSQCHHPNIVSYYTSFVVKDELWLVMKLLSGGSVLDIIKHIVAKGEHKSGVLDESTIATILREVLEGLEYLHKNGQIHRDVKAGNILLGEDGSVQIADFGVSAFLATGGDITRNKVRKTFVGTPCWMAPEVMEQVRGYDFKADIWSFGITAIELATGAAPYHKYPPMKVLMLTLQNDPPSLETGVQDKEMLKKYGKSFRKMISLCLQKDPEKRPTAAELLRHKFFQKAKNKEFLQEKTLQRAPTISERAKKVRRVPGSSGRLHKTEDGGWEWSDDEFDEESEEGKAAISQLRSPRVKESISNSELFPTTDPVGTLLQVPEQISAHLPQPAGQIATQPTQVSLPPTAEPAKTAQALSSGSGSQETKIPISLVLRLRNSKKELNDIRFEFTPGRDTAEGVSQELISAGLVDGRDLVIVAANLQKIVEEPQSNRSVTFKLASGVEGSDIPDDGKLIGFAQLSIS
Sequence of Lck (P06239 whole entry, species assumed): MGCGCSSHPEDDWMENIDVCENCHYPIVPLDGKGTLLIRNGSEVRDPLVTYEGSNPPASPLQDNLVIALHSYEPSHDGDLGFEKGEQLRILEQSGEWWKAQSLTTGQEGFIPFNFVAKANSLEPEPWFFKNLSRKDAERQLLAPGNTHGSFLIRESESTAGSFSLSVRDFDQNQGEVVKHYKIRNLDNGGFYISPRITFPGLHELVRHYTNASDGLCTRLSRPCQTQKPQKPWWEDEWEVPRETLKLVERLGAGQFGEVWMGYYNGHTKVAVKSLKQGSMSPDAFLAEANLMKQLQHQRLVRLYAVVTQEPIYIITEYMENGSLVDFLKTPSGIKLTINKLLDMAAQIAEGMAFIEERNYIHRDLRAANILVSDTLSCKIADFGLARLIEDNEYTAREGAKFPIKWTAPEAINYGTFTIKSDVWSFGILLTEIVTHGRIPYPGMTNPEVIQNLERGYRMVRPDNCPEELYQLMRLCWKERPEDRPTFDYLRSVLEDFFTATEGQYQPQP
Sequence of ERK8 (Q8TD08 whole entry, species assumed): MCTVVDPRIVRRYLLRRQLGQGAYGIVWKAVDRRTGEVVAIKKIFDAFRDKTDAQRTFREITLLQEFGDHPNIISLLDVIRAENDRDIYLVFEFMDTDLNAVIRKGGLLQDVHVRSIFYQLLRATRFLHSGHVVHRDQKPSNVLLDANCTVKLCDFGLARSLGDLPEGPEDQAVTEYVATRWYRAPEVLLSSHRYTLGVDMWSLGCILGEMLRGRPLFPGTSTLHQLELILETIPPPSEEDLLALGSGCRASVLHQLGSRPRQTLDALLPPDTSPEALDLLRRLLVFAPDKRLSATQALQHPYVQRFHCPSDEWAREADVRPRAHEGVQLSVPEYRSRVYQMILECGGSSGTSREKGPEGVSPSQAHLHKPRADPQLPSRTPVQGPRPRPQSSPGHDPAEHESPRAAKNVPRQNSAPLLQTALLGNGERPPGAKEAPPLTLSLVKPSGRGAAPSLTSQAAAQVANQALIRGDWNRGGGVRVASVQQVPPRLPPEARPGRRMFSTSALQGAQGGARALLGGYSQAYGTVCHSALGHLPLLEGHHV
Sequence of CLK2 (P49760 whole entry, species assumed): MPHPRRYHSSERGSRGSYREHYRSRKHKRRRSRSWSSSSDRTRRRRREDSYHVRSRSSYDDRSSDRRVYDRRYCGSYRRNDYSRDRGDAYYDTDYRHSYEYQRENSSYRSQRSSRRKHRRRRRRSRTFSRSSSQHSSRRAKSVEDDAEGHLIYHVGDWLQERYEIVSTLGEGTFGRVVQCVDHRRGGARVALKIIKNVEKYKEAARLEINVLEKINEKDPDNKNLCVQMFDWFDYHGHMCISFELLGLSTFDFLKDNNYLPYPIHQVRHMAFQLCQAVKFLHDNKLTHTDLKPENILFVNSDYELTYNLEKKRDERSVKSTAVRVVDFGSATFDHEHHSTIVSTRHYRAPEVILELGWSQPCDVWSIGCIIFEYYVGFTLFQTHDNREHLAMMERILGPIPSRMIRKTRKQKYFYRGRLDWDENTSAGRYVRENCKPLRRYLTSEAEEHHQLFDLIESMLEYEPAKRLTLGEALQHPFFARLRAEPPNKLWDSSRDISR
Sequence of GSK3b (P49841 whole entry, species assumed): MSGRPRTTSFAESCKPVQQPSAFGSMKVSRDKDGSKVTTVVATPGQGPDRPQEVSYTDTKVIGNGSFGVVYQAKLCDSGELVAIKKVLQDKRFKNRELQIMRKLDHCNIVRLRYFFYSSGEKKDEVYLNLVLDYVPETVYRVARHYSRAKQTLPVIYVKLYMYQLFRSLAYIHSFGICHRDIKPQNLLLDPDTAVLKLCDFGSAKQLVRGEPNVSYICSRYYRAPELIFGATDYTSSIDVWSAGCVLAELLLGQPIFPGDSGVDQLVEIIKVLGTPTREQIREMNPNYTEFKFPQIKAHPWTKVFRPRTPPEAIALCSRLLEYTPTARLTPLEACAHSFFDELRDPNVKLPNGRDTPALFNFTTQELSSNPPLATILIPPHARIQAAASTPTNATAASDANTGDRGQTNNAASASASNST
Text for AMPK (hum): The ATP concentrations were at or below the calculated Km for ATP for each particular kinase.
Experimental for PHK: (§3) The determination of protein kinase inhibition was performed at the International Centre for Kinase Profiling at the University of Dundee, UK. […] The ATP concentrations were at or below the calculated Km for ATP for each particular kinase.
Experimental for PINK: as §3
Experimental for ROCK 2: as §3

With `COc1ccc2sc(-c3cncc(NC(C)=O)c3)nc2c1` [4-93, N-(5-(5-Methoxybenzo[d]thiazol-2-yl)pyridin-3-yl)acetamide], the inhibition at 1 µM on ERK8 worked out at 11%; on CDK9-Cyclin T1, 0%; at PIM2, 0%; at OSR1, 0%; on Lck, 7%. The “phosphorylation of Ser 214 normalised to total tau levels” value in test [1] (ten days treatment) is reported as “unaffected”. Also, the “phosphorylated tau/MAPT at Ser 396 normalised to total tau levels” value in test [1] (setting [3]) is given as “significantly lower”. For the same molecule, the “phosphorylated tau/MAPT at Ser 404 normalised to total tau levels” value in test [1] (setting [3]) is recorded as “significantly lower”. The “tau phosphorylation at Ser 396” value in test [1] (setting [4]) is on record as “significantly reduced”. Further, the “tau phosphorylation at Ser 404” value in test [1] (setting [4]) is “significantly reduced”. The “phosphorylation at Ser 214” value in [1] (treated for 10 days, site not phosphorylated by DYRK1A) was “do not affect”. Moreover, the “tau/MAPT phosphorylation at Ser 396” value in test [2] is listed as “slight increase”. Also, the “tau/MAPT phosphorylation at Ser 404” value in test [2] was “slight increase”.
With `CS(=O)(=O)Nc1cncc(-c2nc3cc(O)ccc3s2)c1` [4-99, N-(5-(5-Hydroxybenzo[d]thiazol-2-yl)pyridin-3-yl)methanesulfonamide], the inhibition at 1 µM on ERK8 came to 0%; on GSK3b, 0%; on CDK9-Cyclin T1, 0%; at PIM2 it was 0%; at CLK2 it was 44%; on OSR1 it was 0%. Besides, the inhibition at 1 µM at Lck stood at 0%. Moreover, the percentage inhibition in the test on ROCK 2, with PHK, in the test on AMPK (hum) and in the test with PINK was 0% each time.
